Assay results as given in US10227371B2, “Polymorphs and new solid states of tiacumicin B” (XELLIA PHARMACEUTICALS APS, priority 2014, dated 2019).

How the values were obtained:
Type in all cases: physicochemical
[1] = XRPD of Tiacumicin solvate forms during storage; conditions: FIG. 8A / FIG. 9A
From the text: FIG. 8A: XRPD of the Tiacumicin solvate form a during storage. FIG. 9A: XRPD of the Tiacumicin solvate form β during storage. The obtained material comprised 16% w/w acetic acid as measured by TG-FTIR. The obtained material comprised 9% w/w isopropylacetate as measured by TG-FTIR.

[2] = Hygroscopicity / water uptake of high purity amorphous Tiacumicin material
From the text: Thus the high purity amorphous Tiacumicin material is relatively stable with respect to crystallization and suitable for long-term storage (e.g storage for 3 months, 6 months, 9 months etc.).

[3] = Stability of high purity amorphous Tiacumicin material on storage (XRPD)
Procedure: Stoe Stadi P; Mythen1K Detector; Cu-Kα1 radiation; standard measurement conditions: transmission; 40 kV and 40 mA tube power; curved Ge monochromator; 0.02°2θ step size, 12 s step time, 1.5-50.5°2θ scanning range; detector mode: step scan; 1°2θ detector step; standard sample preparation: 10 to 20 mg sample was placed between two acetate foils; sample holder: Stoe transmission sample holder; the sample was rotated during the measurement. Filenames of patterns recorded on this instrument consist of a three-digit number followed by a letter.
Bruker D8; Copper Ka radiation, 40 kV/40 mA; LynxEye detector, 0.02°2θ step size, 37 s step time.
The samples were generally measured without any special treatment other than the application of slight pressure to get a flat surface. Silicon single crystal sample holder types: a) standard holder for polymorphism screening, 0.1 mm deep, less than 20 mg sample required; b) 0.5 mm deep, 12 mm cavity diameter for c. 40 mg; c) 1.0 mm deep, 12 mm cavity diameter for c. 80 mg. All samples measured on the Bruker D8 are rotated during the measurement.
Several samples of high purity amorphous Tiacumicin B material were stored at 40° C./75% relative humidity.
Several samples of high purity amorphous Tiacumicin B material were stored at room temperature under normal light conditions.

Suitability for storage (XRPD during storage) [1]	Deliquescence [2]	Suitability for storage (stability with respect to crystallization) ([3]; as demonstrated in example 7)	Solid state by XRPD after storage ([3]; room temperature storage, at 3 months)	Solid state by XRPD after storage ([3]; stored at 40° C./75% relative humidity, XRPDs at start, 24 hours, 7 days and 1 month)	Solid state by XRPD after storage ([3]; stored at room temperature under normal light conditions, XRPDs at start, 1 month and 2 months)	SMILES	Hygroscopicity (water uptake) ([2]; FIG. 7C)
storage suitable						CCc1c(Cl)c(O)c(Cl)c(O)c1C(=O)O[C@H]1[C@H](O)[C@H](OC)[C@H](OC/C2=C\C=C\C[C@H](O)/C(C)=C/[C@H](CC)[C@@H](O[C@@H]3OC(C)(C)[C@@H](OC(=O)C(C)C)[C@H](O)[C@@H]3O)/C(C)=C/C(C)=C/C[C@@H]([C@@H](C)O)OC2=O)O[C@@H]1C [form α of Tiacumicin B, Tiacumicin B]	
	not deliquescent	suitable for storage	amorphous material	amorphous material	amorphous material	CCc1c(Cl)c(O)c(Cl)c(O)c1C(=O)O[C@H]1[C@H](O)[C@H](OC)[C@H](OC/C2=C\C=C\C[C@H](O)/C(C)=C/[C@H](CC)[C@@H](O[C@@H]3OC(C)(C)[C@@H](OC(=O)C(C)C)[C@H](O)[C@@H]3O)/C(C)=C/C(C)=C/C[C@@H]([C@@H](C)O)OC2=O)O[C@@H]1C [Tiacumicin B]	hygroscopic with near linear water uptake
